Assay results published in patent US11286268B1, “EIF4E-inhibiting compounds and methods” (EFFECTOR THERAPEUTICS, INC., priority 2019, dated 2022).
Read-outs that look alike come from different tables or passages of the source.

Molecular target: recombinant eIF4E (Homo sapiens (Human), UniProt P06730)
Experiment: Fluorescence polarization competition assay for eIF4E binding potency
How it was run: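 Competitive displacement format: compounds compete with a fluorescent m7GDP tracer (20 nM) for 75 nM recombinant eIF4E. Incubation is 30 min at room temperature, protected from light, with 1% DMSO. Polarization read gives IC50 over eight 3-fold concentrations.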

[1] = fluorescence polarization competition, 75 nM recombinant eIF4E, 20 nM EDA-m7GDP-ATTO-550, IC50 class, read-out: elF4E FP
[2] = inhibition of eIF4E/EDA-m7GDP-ATTO-550 binding by 50%, Table 4B calculated values, read-out: IC50
[3] = inhibition of eIF4E/EDA-m7GDP-ATTO-550 binding, calculated IC50 values, Table 4B, read-out: IC50

recombinant eIF4E, sequence (P06730 whole entry): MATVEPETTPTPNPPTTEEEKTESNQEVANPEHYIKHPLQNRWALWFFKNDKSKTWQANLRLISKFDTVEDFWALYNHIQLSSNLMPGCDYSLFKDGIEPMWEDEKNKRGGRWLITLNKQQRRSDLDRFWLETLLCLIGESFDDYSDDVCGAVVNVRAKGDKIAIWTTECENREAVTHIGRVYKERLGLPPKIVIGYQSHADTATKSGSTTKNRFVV

SMILES	IC50 [1] [nM]	IC50 [2] [nM]	IC50 [3] [nM]
Cc1cc(-c2cc(Cl)ccc2OCCn2c(C)nc3cc(C(F)(F)F)c(N4CCN(C)CC4=O)c(C#N)c3c2=O)c2scc(C(=O)O)c2n1 [compound 1075]	< 50	6.64	–
Cc1cc(-c2cc(Cl)ccc2OCCn2c(C)nc3cnc(N(C)CC(F)(F)F)c(C#N)c3c2=O)c2scc(C(=O)O)c2n1 [compound 971]	50 to 1000	57.8	–
Cc1nc2cnc(N(C)C3CCN(CC(C)(F)F)CC3)c(C#N)c2c(=O)n1CC#Cc1ccc(Cl)cc1-c1ccnc2c(C(N)=O)csc12 [compound 1596]	–	–	654
Cc1cc(-c2cc(Cl)ccc2OCCn2c(C)nc3c(C)ncc(C#N)c3c2=O)c2scc(C(O)(O)C(F)(F)F)c2n1 [compound 732]	50 to 1000	874	–
N#Cc1c(C(F)F)ccc2ncn(CCOc3ccc(Cl)cc3-c3cccc(C(=O)O)c3)c(=O)c12 [compound 28]	50 to 1000	61.6	–
Cc1nc2c(N3CCN(C4(C(F)F)COC4)CC3)ncc(C#N)c2c(=O)n1CCOc1ccc(Cl)cc1-c1ccnc2c(C(=O)O)csc12 [compound 1397]	–	–	14.7
Cc1nc2cc(F)c(CN(C)C)c(C#N)c2c(=O)n1CCOc1ccc(Cl)cc1-c1ccnc2c(C(=O)O)csc12 [compound 311]	50 to 1000	55.5	–
Cc1cc(-c2cc(Cl)ccc2OCCn2c(C)nc3cnc(-c4cccc(F)c4)c(C#N)c3c2=O)c2scc(C(=O)O)c2n1 [compound 942]	< 50	6.93	–
Cc1nc2cnc(C3(F)CCN(C)CC3)c(C#N)c2c(=O)n1CCOc1ccc(Cl)cc1-c1ccnc2c(C(=O)O)csc12 [compound 1264]	–	–	12.4
Cc1nc2cc(C(F)(F)F)c(N3CCC4(CC3)CN(CC(F)F)C4)c(C#N)c2c(=O)n1CCOc1ccc(Cl)cc1-c1ccnc2c(C(=O)O)csc12 [compound 1912]	–	–	5.96
Cc1cc(-c2cc(Cl)ccc2OCCn2c(C)nc3cc(Cl)c(Nc4cncc(F)c4)c(C#N)c3c2=O)c2scc(C(=O)O)c2n1 [compound 962]	< 50	3.15	–
CSc1c(-c2cc(Cl)ccc2OCCn2c(C)nc3cnc(C4CC4)c(C#N)c3c2=O)ccnc1C(=O)O [compound 757]	50 to 1000	137	–
CCc1cc(-c2cc(Cl)ccc2OCCn2c(C)nc3cc(C(F)(F)F)c(N4CC5(C4)CN(C4CC4)C5)c(C#N)c3c2=O)c2scc(C(=O)NS(C)(=O)=O)c2n1 [compound 1932]	–	–	8.4
Cc1nc2cnc(N(C)C3CCN(CC4(F)CCC4)CC3)c(C#N)c2c(=O)n1CC#Cc1ccc(Cl)cc1-c1ccnc2c(C(=O)O)csc12 [compound 1174]	< 50	9.32	–
Cc1nc2cnc(N3CCN(C4(CCC(F)(F)F)CC4)CC3)c(C#N)c2c(=O)n1CCOc1ccc(Cl)cc1-c1ccnc2c(C(=O)O)csc12 [compound 1401]	–	–	12.7
Cc1cc(-c2cc(Cl)ccc2OCCn2c(C)nc3cc(C(F)(F)F)c(N4CC(F)(F)C4)c(C#N)c3c2=O)c2scc(C(=O)O)c2n1 [compound 687]	< 50	13.5	–
Cc1nc2cc(Cl)c(Cl)c(C#N)c2c(=O)n1CC#Cc1ccc(Cl)cc1-c1ccnc2c(C(=O)O)csc12 [compound 257]	50 to 1000	69.2	–
CCN(c1ncc2nc(C)n(CC#Cc3ccc(Cl)cc3-c3ccnc4c(C(=O)NS(=O)(=O)c5ccncc5)csc34)c(=O)c2c1C#N)C1CCN([C@H]2C[C@H](OC(F)F)C2)CC1 [compound 1769]	–	–	16.4
Cc1nc2cnc(N(C)C3CCCN(CC(F)F)C3)c(C#N)c2c(=O)n1CC#Cc1ccc(Cl)cc1-c1ccnc2c(C(=O)O)csc12 (stereo not drawn) [compound 1540]	–	–	19.5
Cc1nc2cnc(N3CCC(N4CC(OC(F)F)C4)CC3)c(C#N)c2c(=O)n1CC#Cc1ccc(Cl)cc1-c1ccnc2c(C(=O)O)csc12 [compound 1187]	< 50	–	–
Cc1cc(-c2nc3c(=O)n(CCOc4ccc(Cl)cc4-c4ccc(C#N)c5c(C(=O)O)csc45)c(C)nc3cc2C(F)(F)F)ccn1 [788Fa]	> 1000	1940	–
Cc1nc2cnc(O)c(C#N)c2c(=O)n1CC#Cc1ccc(Cl)cc1-c1ccnc2c(C(=O)O)csc12 [compound 891]	< 50	13.7	–
O=C(O)c1cccc(-c2cc(Cl)ccc2OCCc2ccnc3nc(Nc4ccccc4)[nH]c(=O)c23)c1 [compound 176]	< 50	41.5	–
Cc1nc2cc(C(F)(F)F)c(N3CCN(C)CC3)nc2c(=O)n1CCOc1ccc(Cl)cc1-c1ccnc2c(C(=O)NS(C)(=O)=O)csc12 [compound 1155]	< 50	18.1	–
Cc1cc(-c2cc(Cl)ccc2OCCn2c(C)nc3cc(C(F)(F)F)c(-c4cnc(C)c(F)c4)c(C#N)c3c2=O)c2scc(C(=O)O)c2n1 [compound 1383]	–	–	5.03
Cc1nc2cc(C(F)(F)F)c(N3CCN(CCO)CC3)c(C#N)c2c(=O)n1CCOc1ccc(Cl)cc1-c1ccnc2ccsc12 [compound 852]	< 50	21.4	–

SMILES	IC50 [1] [nM]	IC50 [2] [nM]	IC50 [3] [nM]
Cc1c(C(F)(F)F)cc2nc(C)n(CC#Cc3ccc(Cl)cc3-c3cn(C)c(=O)c4c(C(=O)O)csc34)c(=O)c2c1C#N [compound 754]	< 50	17.2	–
Cc1cc(-c2cc(CN3CCN(C)CC3)ccc2OCCn2c(C)nc3cc(F)c(CN4CCN(C)CC4)c(C#N)c3c2=O)c2scc(C(=O)O)c2n1 [compound 2027]	–	–	> 1000
C#Cc1c(C(=O)O)cccc1-c1cc(Cl)ccc1OCCn1c(C)nc2cc(C(F)(F)F)cc(C#N)c2c1=O [compound 156]	< 50	4.2	–
Cc1cc2nc(C)n(CCOc3ccc(Cl)cc3-c3cc(C)nc4c(C(=O)O)csc34)c(=O)c2c(C#N)n1 [compound 685]	< 50	–	–
Cc1nc2cc(C(F)(F)c3ccncc3)cc(C#N)c2c(=O)n1CCOc1ccc(Cl)cc1-c1ccnc2c(C(=O)O)csc12 [compound 216]	50 to 1000	62.8	–
Cc1cc(C)c(-c2c(C(F)(F)F)cc3nc(C)n(CCOc4ccc(Cl)cc4-c4cc(C)nc5c(C(=O)O)csc45)c(=O)c3c2C#N)cn1 [compound 350]	< 50	14.2	–
Cc1cc(C)nc(-c2c(C(F)(F)F)cc3nc(C)n(CCOc4ccc(Cl)cc4-c4cc(C)nc5c(C(=O)O)csc45)c(=O)c3c2C#N)n1 [compound 965]	50 to 1000	118	–
CCS(=O)(=O)NC(=O)c1csc2c(-c3cc(Cl)ccc3C#CCn3c(C)nc4cnc(N(C)C5CCN(C6CC(F)(F)C6)CC5)c(C#N)c4c3=O)ccnc12 [compound 1807]	–	–	10.4
COc1cc(-c2cc(Cl)ccc2OCCn2c(C)nc3cc(C(F)(F)F)cc(C#N)c3c2=O)c2scc(C(=O)O)c2n1 [compound 329]	< 50	46.4	–
Cc1nc2cnc(N(C)C3CCN(CC(F)(F)C4CC(F)(F)C4)CC3)c(C#N)c2c(=O)n1CC#Cc1ccc(Cl)cc1-c1ccnc2c(C(=O)O)csc12 [compound 1582]	–	–	19.2
Cc1nc2cnc(C#CC3CCCN3C3CC3)c(C#N)c2c(=O)n1CCOc1ccc(Cl)cc1-c1ccnc2c(C(=O)O)csc12 (stereo not drawn) [compound 1344]	–	–	18.3
Cc1cc(-c2cc(Cl)ccc2OCCn2c(C)nc3cnc(N4CC(OCC(F)F)C4)c(C#N)c3c2=O)c2scc(C(=O)O)c2n1 [compound 1043]	< 50	3.98	–
Cc1nc2cnc(N(C)C3CCN(CC4CC4)CC3)c(C#N)c2c(=O)n1CCOc1ccc(Cl)cc1-c1ccnc2c(C(=O)O)csc12 [compound 1370]	–	–	19.9
CCCc1cc(-c2cc(Cl)ccc2OCCn2c(C)nc3cnc(C4CC4)c(C#N)c3c2=O)c2scc(C(=O)O)c2n1 [compound 1076]	< 50	24.5	–
Cc1nc2ccc(S(=O)(=O)N3CCC(F)(F)CC3)c(C#N)c2c(=O)n1CCOc1ccc(Cl)cc1-c1ccnc2c(C(=O)O)csc12 [compound 282]	< 50	17.1	–
Cc1nc2cnc(N(C)C3CCN(C4CC(F)(F)C4)CC3)c(C#N)c2c(=O)n1CC#Cc1ccc(Cl)cc1-c1ccnc2c(C(=O)NS(=O)(=O)CC#N)csc12 [compound 1825]	–	–	17.1
O=C(O)c1cccc(-c2cc(Cl)ccc2OCCn2cnc3cc(F)c(F)cc3c2=O)c1 [compound 77]	> 1000	1440	–
Cc1cc(-c2cc(Cl)ccc2OCCn2c(C)nc3cnc(NCC(F)(F)F)c(C#N)c3c2=O)c2scc(C(=O)O)c2n1 [compound 972]	< 50	9.77	–
Cc1ncc(F)cc1-c1c(C(F)(F)F)cc2nc(C)n(CCOc3ccc(Cl)cc3-c3ccnc4ccsc34)c(=O)c2c1C#N [compound 706]	50 to 1000	–	–
Cc1nc2cnc(N3CCN4CCC3C4)c(C#N)c2c(=O)n1CCOc1ccc(Cl)cc1-c1ccnc2c(C(=O)O)csc12 (stereo not drawn) [compound 1348]	–	–	12.2
CCN(c1ncc2nc(C)n(CC#Cc3ccc(Cl)cc3-c3ccnc4c(C(=O)NS(=O)(=O)c5cccnc5)csc34)c(=O)c2c1C#N)C1CCN([C@H]2C[C@@H](OC(F)(F)F)C2)CC1 [compound 1780]	–	–	10.9
Cc1nc2cnc(N3CCN(CCF)C4(CC4)C3)c(C#N)c2c(=O)n1CCOc1ccc(Cl)cc1-c1ccnc2c(C(=O)O)csc12 [compound 1338]	–	–	9.5
CCc1cc(-c2cc(F)c(F)cc2OCCn2c(C)nc3cc(C(F)(F)F)c(N4CCN(C)CC4)c(C#N)c3c2=O)c2scc(C(=O)O)c2n1 [compound 1215]	< 50	–	25.7
Cc1cc(-c2cc(Cl)ccc2OCCn2c(C)nc3c(-c4ccccc4)ncc(C#N)c3c2=O)c2scc(C(=O)O)c2n1 [compound 1378]	–	–	30
CCN(c1ncc2nc(C)n(CC#Cc3ccc(Cl)cc3-c3ccnc4c(C(=O)NS(=O)(=O)CCC#N)csc34)c(=O)c2c1C#N)C1CCN(C2COC2)CC1 [compound 1736]	–	–	12.6
Cc1nc2cc(C(F)(F)F)c(CC3CN(CC(F)(F)F)C3)c(C#N)c2c(=O)n1CCOc1ccc(Cl)cc1-c1ccnc2c(C(=O)O)csc12 [compound 494]	50 to 1000	85.6	–
